Test results reported in patent US8946201B2, “Methods for inhibiting TGF-β” (Saint Louis University, priority 2007, dated 2015).

Test system: TβR-I and TβR-II
Assay: 125I-TGF-β1 affinity labeling, Mv1Lu cells
Format: cell-based, mink
Procedure: (A) Mv1Lu cells were treated with 50 μg/ml cholesterol at 37° C. After several time periods, as indicated, ^125I-TGF-β1-affinity labeling was performed at 0° C. ^125I-TGF-β1 affinity-labeled TGF-β receptors were analyzed by 7.5% SDS-PAGE and autoradiography (a) and quantified with a PhosphoImager. The bracket indicates the locations of ^125I-TGF-β1 affinity-labeled TβR-I and TβR-II. The ratio of ^125I-TGF-β1 binding to TβR-II and TβR-I is plotted against incubation time (b).
(B, C, D, E) Cells were treated with increasing concentrations of cholesterol in the presence (C) and absence (B, D, E) of 0.2% β-CD, as indicated. After 1 hr at 37° C., ^125I-TGF-β1 affinity labeling of TβR-I and TβR-II in cells was performed at 0° C. ^125I-TGF-β1 affinity-labeled TβR-I and TβR-II were analyzed by 7.5% SDS-PAGE and autoradiography or quantified with a PhosphoImager. A representative of a total of three analyses is shown (top). The bracket indicates the locations of ^125I-TGF-β affinity-labeled TβR-I and TβR-II. The relative intensities of ^125I-TGF-β1 affinity-labeled TβR-I and TβR-II in cells treated without cholesterol were taken as 100%. The quantitative data from three analyses is shown (bottom).
The bracket indicates the locations of ^125I-TGF-β1 affinity-labeled TβR-I and TβR-II. The relative intensities of ^125I-TGF-β1-TβR-I and ^125I-TGF-β1-TβR-II complexes, which were quantified with a PhosphoImager, are plotted against TGF-β1 concentrations (bottom).
(A, B, C, D, E, F) Cells were treated with LDL (50 μg protein/ml), VLDL (5 μg protein/ml), HDL (50 μg protein/ml), lipoprotein (a) (10 μg/ml), fluvastatin (F; 1 μM), lovastatin (L; 1 μM), nystatin (Nys; 25 μg/ml), β-CD (β-CD; 8 mM), cholest-4-en-3-one (3-one; 50 μg/ml) or cholesterol (Chol; 50 μg/ml) alone or combination of two. After 1 hr at 37° C. or 16 hr at 37° C. (for fluvastatin and lovastatin), ^125I-TGF-β1 affinity labeling of cell-surface TGF-β receptors was performed at 0° C. ^125I-TGF-β1 affinity-labeled TβR-I and TβR-II were analyzed by 7.5% SDS-PAGE and autoradiography. The relative intensities of TβR-I and TβR-II were quantified with a PhosphoImager. The ratio of ^125I-TGF-β1 binding to TβR-II and TβR-I were estimated. The numbers above the lane sequence denote the ratio of TβR-II/TβR-I.
(G) Mv1Lu cells were treated with 50 μg/ml of cholesterol and cholesterol analogs/derivatives including 25-hydroxycholesterol, 7-dehydrocholesterol (7-DHC), 7-ketocholesterol, 7β, 8β-epoxycholesterol, 7β-hydroxycholesterol, and oxidized 7-dehydrocholesterol (oxy-7DHC). After 1 hr at 37° C., ^125I-TGF-β1 affinity labeling of TGF-β receptors was performed. ^125I-TGF-β1 affinity-labeled TβR-I and TβR-II were analyzed by 7.5% SDS-PAGE and autoradiography. The bracket indicates the locations of ^125I-TGF-β1-affinity-labeled TβR-I and TβR-II. The relative intensities of ^125I-TGF-β1 affinity-labeled TβR-I and TβR-II were determined by a PhosphoImager. The ratios of ^125I-TGF-β1 binding to TβR-II and TβR-I were estimated. The numbers above the lane sequence denote the ratio of TβR-II/TβR-I.
After cross-linking, cell lysates were analyzed by 7.5% SDS-PAGE and autoradiography or quantified by a PhosphoImager. For all experiments, cholesterol or cholesterol derivatives were prepared as the stock solution with a concentration of 25 mg/ml in ethanol. The final concentration of ethanol in the medium was 0.2% (by vol.).

[1] = 50 μg/ml, 60-min or 120-min incubation (FIG. 3A)
[2] = 125 μg/ml in the presence of 0.2% β-CD

With CC(C)CCC[C@@H](C)[C@H]1CC[C@H]2[C@@H]3CC=C4C[C@@H](O)CC[C@]4(C)[C@H]3CC[C@]12C [cholesterol] the “effect on 125I-TGF-β1 binding to TβR-II” value [1] was “did not affect”, the “increase of 125I-TGF-β1 binding to TβR-I” value [1] was roughly 1.5 fold and the “ratio of TβR-II/TβR-I” value (50 μg/ml, 60 min or 120 min, 0.37 without cholesterol) was 0.18. For the same molecule, the “effect on the affinities of TGF-β1 binding to both TβR-I and TβR-II” value (50 μg/ml, 1 hr) was “does not alter”, the “relative potency in increasing binding to TβR-I and decreasing the ratio” value (50 μg/ml, 1 hr (FIG. 4G)) was “the most potent of these compounds” and the “increase of 125I-TGF-β1 binding to TβR-I” value (50 μg/ml, 1 hr, 125 pM 125I-TGF-β1 (FIG. 3F)) was roughly 2 fold. For the same molecule, the 125I-TGF-β1 binding to TβR-II, relative intensity (50 μg/ml, 1 hr, 125 pM 125I-TGF-β1, ~180 untreated) was ~120 ×10^3 A.U, the “125I-TGF-β1 binding to TβR-I, relative intensity” value (50 μg/ml, 1 hr, 125 pM 125I-TGF-β1, ~350 untreated) was ~700 ×10^3 A.U and the “ratio of TGF-β1 binding to TβR-II and TβR-I” value (50 μg/ml, 1 hr, 0.62 untreated (FIG. 4G)) was 0.29. For the same molecule, the “increase of 125I-TGF-β1 binding to TβR-I” value (50 μg/ml, 1 hr, Mv1Lu cells) was roughly 2.5 fold, the “ratio of TβR-II/TβR-I” value (50 μg/ml, 1 hr, Mv1Lu cells, 0.42 untreated) was 0.20 and the “effect on 125I-TGF-β1 binding to TβR-II” value [2] was “little effect”. The “increase of 125I-TGF-β1 binding to TβR-I” value [2] was roughly 3 fold, the “effect of exogenous cholesterol on the statin effect on the ratio” value (CHO-K1, Mv1Lu and BAEC cells (FIGS. 4D, E and F)) was “abolished” and the “effect on binding of 125I-TGF-β1 to TβR-II” value (increasing concentrations, 1 hr, Mv1Lu cells) was “did not significant alter”.

With CC[C@H](C)C(=O)O[C@H]1C[C@@H](C)C=C2C=C[C@H](C)[C@H](CC[C@@H]3C[C@@H](O)CC(=O)O3)[C@H]21 [lovastatin, reference compound] the “ratio of TβR-II/TβR-I” value (1 μM, 37° C. 16 hr, Mv1Lu cells, 0.88 untreated) was 1.18.

In the case of C[C@@H]1[C@H](O)[C@@H](C)/C=C/C=C/CC/C=C/C=C/C=C/C=C/C(O[C@H]2O[C@H](C)[C@@H](O)[C@H](N)[C@@H]2O)CC2O[C@](O)(CC(O)C(O)CCC(O)CC(O)CC(O)CC(=O)O[C@H]1C)CC(O)C2C(=O)O (some centres unmarked) [nystatin, reference compound], the “effect on the LDL- or cholesterol-induced increase of 125I-TGF-β1 binding to TβR-I” value (co-treatment, β-CD 8 mM, nystatin 25 μg/ml, cholest-4-en-3-one 50 μg/ml (FIG. 4B, C)) is reported as “abolished”.
